According to PubChem BioAssay (NCI):
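Five compound concentrations were applied to cells in 96-well plates for 48 hours; endpoints were derived by simple linear interpolation of the resulting dose-response curve. At the GI50, growth is halved. The concentration for full growth arrest is given as TGI.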

Experiments:
Assay in all cases: NCI anticancer screen, dose series, 48 h
DU-145 prostate = system: DU-145 prostate
K-562 leukemia = system: K-562 leukemia
IGROV1 ovarian = system: IGROV1 ovarian
SK-MEL-28 melanoma = system: SK-MEL-28 melanoma
MALME-3M melanoma = system: MALME-3M melanoma
HCC-2998 colon = system: HCC-2998 colon
MDA-MB-231 breast = system: MDA-MB-231 breast
HOP-92 NSCLC = system: HOP-92 NSCLC
CCRF-CEM leukemia = system: CCRF-CEM leukemia
SR leukemia = system: SR leukemia

Row | SMILES | GI50 (DU-145 prostate) [µM] | TGI (DU-145 prostate) [µM] | GI50 (K-562 leukemia) [µM] | TGI (K-562 leukemia) [µM] | GI50 (IGROV1 ovarian) [µM] | TGI (IGROV1 ovarian) [µM] | GI50 (SK-MEL-28 melanoma) [µM] | TGI (SK-MEL-28 melanoma) [µM] | GI50 (MALME-3M melanoma) [µM] | TGI (MALME-3M melanoma) [µM] | GI50 (HCC-2998 colon) [µM] | TGI (HCC-2998 colon) [µM] | GI50 (MDA-MB-231 breast) [µM] | TGI (MDA-MB-231 breast) [µM] | GI50 (HOP-92 NSCLC) [µM] | TGI (HOP-92 NSCLC) [µM] | GI50 (CCRF-CEM leukemia) [µM] | TGI (CCRF-CEM leukemia) [µM] | GI50 (SR leukemia) [µM] | TGI (SR leukemia) [µM]
1 | COc1cc([C@@H]2c3cc4c(cc3[C@H](OC(C)=O)[C@H]3COC(=O)[C@H]23)OCO4)cc(OC)c1OC | 0.0412 | > 100 | 0.0321 | > 100 | 0.0571 | > 100 | 13.1 | > 100 | > 100 | > 100 | 0.0401 | > 100 | 0.0416 | > 100 | 0.0254 | 4.94 | 0.0337 | > 100 | 0.0225 | > 100
2 | ClC1(c2ccccc2)c2ccc(Br)cc2-c2cc(Br)ccc21 | – | 48.1 | – | > 100 | – | 30.2 | – | 35.8 | – | 32.5 | – | 36.2 | – | 30.7 | – | 29.2 | – | > 100 | – | 70.6
3 | CCn1cc(C(=O)N/N=C/c2cccc(F)c2)c(=O)c2cc(F)c(N3CCNC(C)C3)c(F)c21 (configuration not stated) | 1.67 | 3.05 | 1.04 | 2.4 | 1.58 | 3.16 | – | – | 1.72 | 3.23 | 1.86 | 3.53 | 1.68 | 3.14 | 1.12 | 2.42 | 1.55 | 3.39 | 1.33 | 3.14
4 | O=C1CCC2=C3C4CCCCC4C(=O)C4CCCC(OC2C1)C34 (configuration not stated) | 0.357 | 2.1 | 0.493 | – | 1.64 | 6.15 | 4.84 | > 31.4 | 0.418 | 1.98 | 3.41 | 15.7 | 1.47 | > 27.6 | 2.43 | 8.95 | 1.34 | 8.08 | 0.307 | 54.8
5 | COc1cc(C)[nH]c(=O)c1CN1CCc2c(Cl)cc([C@H](OC)C3COC3)c(Cl)c2C1=O | > 100 | > 100 | > 100 | > 100 | > 100 | > 100 | > 100 | > 100 | > 100 | > 100 | > 100 | > 100 | > 100 | > 100 | > 100 | > 100 | > 100 | > 100 | > 100 | > 100
6 | CN(C)c1ccc2cc(-c3cc4c(oc3=O)-c3ccccc3OC4O)c(=O)oc2c1 (configuration not stated) | 5.18 | 15.9 | 5.2 | > 25 | 5.07 | 12 | 8.24 | > 25 | 5.98 | 14.6 | 6.99 | 20.2 | 4.9 | 11.5 | 7.49 | 17.7 | 2.54 | 7.95 | 3.19 | 9.96
